Data as given in patent US20070053869A1, “Formulation and method for enhancement of gastrointestinal absorption of pharmaceutical agents” (priority 2005, published 2007).
Read-outs that look alike come from different tables or passages of the source.

What was measured:
GFP MDCK-II cells = experiment: [3H]-mitoxantrone accumulation in GFP-transduced MDCK-II control cells; format: cell-based
ABCG2 [1] = molecular target: T1, ABCG2 (Homo sapiens, UniProt Q9UNQ0); experiment: [3H]-mitoxantrone accumulation in ABCG2-transduced MDCK-II cells (BCRP MDCK-II)
T1 sequence (Q9UNQ0 1-655): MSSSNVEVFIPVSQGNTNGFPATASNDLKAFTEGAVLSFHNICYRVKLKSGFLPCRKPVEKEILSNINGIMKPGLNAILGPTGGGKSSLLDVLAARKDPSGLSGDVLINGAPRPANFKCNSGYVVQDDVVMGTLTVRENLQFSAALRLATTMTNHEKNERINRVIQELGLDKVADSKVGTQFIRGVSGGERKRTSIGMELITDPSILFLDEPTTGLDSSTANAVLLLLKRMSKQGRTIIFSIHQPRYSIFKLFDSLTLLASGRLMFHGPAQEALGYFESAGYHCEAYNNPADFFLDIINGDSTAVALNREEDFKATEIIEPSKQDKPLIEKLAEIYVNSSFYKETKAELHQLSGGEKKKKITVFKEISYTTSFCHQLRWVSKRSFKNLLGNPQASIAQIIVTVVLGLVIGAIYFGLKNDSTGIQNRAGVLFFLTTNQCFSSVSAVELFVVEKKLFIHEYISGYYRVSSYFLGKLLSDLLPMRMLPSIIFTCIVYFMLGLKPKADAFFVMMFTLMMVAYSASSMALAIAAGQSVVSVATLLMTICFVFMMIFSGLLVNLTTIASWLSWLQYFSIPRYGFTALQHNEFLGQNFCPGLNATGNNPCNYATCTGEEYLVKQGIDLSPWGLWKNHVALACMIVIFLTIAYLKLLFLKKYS
Description: Methods: For constructing MDCK-II cells expressing human ABCG2 or green fluorescent protein (GFP), MDCK-II cells were infected with recombinant adenoviruses containing human ABCG2 or GFP cDNA at 48 h prior to the experiments. ABCG2 or GFP-transduced cells were preincubated in prewarmed transport buffer for 15 min. Subsequently, [^3H]-mitoxantrone (MTX) was added in transport buffer to apical compartments. Accumulation of radiolabeled substrates was allowed for 2 h at 37° C. with or without an appropriate concentration of pharmaceutical excipients, 20 μM of GF120918 or 5 μM of PSC833. The reactions were arrested by washing cells with ice-cold transport buffer. Cells were solubilized and then the lysates were transferred to a liquid scintillation counter for measurement of radioactivity.
To abolish the influence of endogenous P-gp, PSC833 (P-gp inhibitor) was added during the incubation for 2 h, except that in the samples treated with GF120918 (a shared ABCG2 and P-gp inhibitor) no PSC833 was added.
The inhibitory effect of excipients on ABCG2 was further characterized in an intracellular accumulation study. MDCK-II cells overexpressing ABCG2 (BCRP MDCK-II) and, as controls, MDCK-II cells overexpressing green fluorescence protein (GFP) (GFP MDCK-II) were prepared. Mitoxantrone was used as the substrate. Intracellular mitoxantrone accumulation in the presence or absence of excipients was determined.
To discover the excipients that can inhibit ABCG2, we performed an intracellular accumulation study using BCRP MDCK-II and GFP MDCK-II cells in the absence or presence of excipients. Mitoxantrone was used as the substrate. To abolish the effect of endogenous P-gp, this experiment was performed in the presence of PSC833. […] All of the excipients were used below their cmc, because above their cmc, excipients form micelles that can interact with the substrate, and as a consequence the effective concentration of mitoxantrone in the experimental medium can decrease.

[2] = reported in literature; cited from earlier work
ABCG2 [3] = molecular target: T1, ABCG2
Description: (§6) Measurement of the uptake of [^3H]-estrone-3-sulfate (E1S) was carried out for 11 pharmaceutical excipients at or near their reported critical micelle concentrations using ABCG2-expressing membrane vesicles.
(§7) Eleven of the pharmaceutical excipients of Table 2 were examined for effect on ABCG2 function at their cmc. The inhibitory mechanism of ABCG2 inhibition by pharmaceutical excipients was also investigated. […] The uptake of E1S into these membrane vesicles was examined in the presence and absence of the first eleven excipients of Table 2.
(§8) The IC50 values for these excipients, and their mode of inhibitory action for the function of ABCG2 were evaluated and determined.
(§9) Km and Vmax were calculated for ABCG2 inhibition by excipients at a concentration near the IC50 values. Then, their values were compared to those obtained in the absence of excipient. […] Results are the means±SE (n=3).

[4] = critical micelle concentration by surface tension in a transport buffer; format: physicochemical
Excerpt: The critical micelle concentration can be measured by a surface tension method,-e.g. using a Tensiometer, or other methods known in the art. Any suitable method known in the art can be used to measure the cmc. In a particular embodiment ASTM D 971 REV A is used.
Therefore, we determined the cmc of the 11 excipients used above, and others, by measuring surface tension in a transport buffer. […] The concentration beyond which there was no further change in surface tension was taken as the cmc.

P-gp = P-gp (Homo sapiens, UniProt P08183); experiment: mitoxantrone accumulation in P-gp MDCK-II cells
Excerpt: Moreover, to investigate the inhibitory effect of excipients on P-gp, we also performed an intracellular accumulation study for 15 excipients using P-gp MDCK-II cells. Mitoxantrone was again used as the substrate.

ABCG2 [5] = molecular target: T1, ABCG2; experiment: [3H]-estrone-3-sulfate (E1S) uptake into ABCG2-expressing membrane vesicles from HEK293 cells
Description: as §6, §7, §8, §9

[6] = mouse, in vivo
Description: (§1) Topotecan (1 mg/kg) was administered orally to wild-type and female bcrp1 KO mice. We then determined the plasma concentration of topotecan as a function of time (FIG. 9).
(§2) We then determined the plasma concentration of topotecan as a function of time.
(§3) Topotecan was also administered intravenously, for comparison. […] We then determined the plasma concentration of topotecan as a function of time.
(§4) The dose of topotecan was 1000 μg/kg of body weight.
(§5) The product of Fa and Fg is presystemic bioavailability for drugs not further metabolized in the liver. […] We determined Fa*Fg using Eh=CLTOT,BLOOD/Qh where Qh is 5.4 (L/h/kg). The fold change relative to wild type control is also presented.

[7] = mouse, in vivo; remark: listed apart in the source
Description: as §1, §2, §3, §4, §5

[8] = ratio of topotecan concentration in blood to plasma; conditions: mouse, blood and plasma; mice; read-out: RB, ratio of topotecan concentration in blood to plasma
GFP/MDCK II cells = experiment: intracellular ATP level, luciferin/luciferase assay, GFP/MDCK II cells; format: cell-based; conditions: sodium azide 100 mM; P85 copolymer 20 μM; polysorbate 20 250 μM; polyoxyl 35 castor oil 50 μM; sorbitan monolaurate 100 μM; lauryl PEG ether 100 μM; n=3

P-gp, sequence (P08183 whole entry): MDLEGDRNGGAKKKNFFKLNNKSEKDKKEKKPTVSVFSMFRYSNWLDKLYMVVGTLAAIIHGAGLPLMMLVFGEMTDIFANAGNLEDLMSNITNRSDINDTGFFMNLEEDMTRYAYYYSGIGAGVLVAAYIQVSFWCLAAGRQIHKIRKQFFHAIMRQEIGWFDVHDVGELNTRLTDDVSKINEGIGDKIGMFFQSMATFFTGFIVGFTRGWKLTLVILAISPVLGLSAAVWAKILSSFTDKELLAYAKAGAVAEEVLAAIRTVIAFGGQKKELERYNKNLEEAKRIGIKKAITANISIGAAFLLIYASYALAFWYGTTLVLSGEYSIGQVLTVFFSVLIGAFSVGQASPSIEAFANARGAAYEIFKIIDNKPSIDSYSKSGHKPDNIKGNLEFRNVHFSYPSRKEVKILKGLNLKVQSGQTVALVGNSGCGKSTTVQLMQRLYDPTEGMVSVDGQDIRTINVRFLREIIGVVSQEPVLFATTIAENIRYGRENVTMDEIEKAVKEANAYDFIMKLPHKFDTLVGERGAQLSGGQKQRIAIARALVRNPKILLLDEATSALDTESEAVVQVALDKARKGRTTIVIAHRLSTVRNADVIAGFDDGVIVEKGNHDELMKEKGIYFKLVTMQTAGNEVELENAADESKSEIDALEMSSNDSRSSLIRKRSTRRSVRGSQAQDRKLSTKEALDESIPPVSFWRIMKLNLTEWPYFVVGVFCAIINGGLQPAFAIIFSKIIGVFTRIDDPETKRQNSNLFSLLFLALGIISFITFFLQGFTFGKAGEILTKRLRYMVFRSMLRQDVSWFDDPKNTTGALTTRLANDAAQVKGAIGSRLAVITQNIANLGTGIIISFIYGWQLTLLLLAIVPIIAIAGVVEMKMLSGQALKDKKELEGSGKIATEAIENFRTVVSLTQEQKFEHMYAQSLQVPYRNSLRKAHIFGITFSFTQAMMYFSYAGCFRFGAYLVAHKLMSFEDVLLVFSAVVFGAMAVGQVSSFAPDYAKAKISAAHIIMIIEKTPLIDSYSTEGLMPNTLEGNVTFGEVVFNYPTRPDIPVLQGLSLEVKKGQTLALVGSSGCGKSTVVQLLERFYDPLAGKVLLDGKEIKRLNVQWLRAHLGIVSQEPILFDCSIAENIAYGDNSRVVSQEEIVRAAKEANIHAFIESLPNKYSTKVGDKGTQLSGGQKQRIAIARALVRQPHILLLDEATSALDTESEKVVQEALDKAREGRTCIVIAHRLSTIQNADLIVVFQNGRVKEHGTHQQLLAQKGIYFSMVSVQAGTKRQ

## COc1cc2c(cc1OC)CN(CCc1ccc(NC(=O)c3cccc4c(=O)c5cccc(OC)c5[nH]c34)cc1)CC2 [GF120918]
GFP MDCK-II cells; Example 1, 20 μM GF120918, 2 h
  accumulation of MTX in GFP-transduced cells (in words): no consistent effect
ABCG2 [1]
  initial accumulation of mitoxantrone, BCRP versus GFP MDCK-II cells: no significant difference
ABCG2 [1]; human, 2 h, 20 μM
  accumulation of MTX in ABCG2-transduced cells compared to control: 1.4 times

## CCCCCCCCCCCCO[C@@H]1O[C@H](CO)[C@@H](O[C@H]2O[C@H](CO)[C@@H](O)[C@H](O)[C@H]2O)[C@H](O)[C@H]1O [LM, n-dodecyl-β-D-maltopyranoside]
[2]
  Reference cmc: 170 µM
ABCG2 [3]
  effect on ABCG2-mediated E1S uptake into vesicles (in words): less or no effect
[4]
  Measured cmc: 688 µM

## C/C=C/C[C@@H](C)C(=O)[C@H]1C(=O)N[C@@H](C(C)C)C(=O)N(C)CC(=O)N(C)[C@@H](CC(C)C)C(=O)N[C@@H](C(C)C)C(=O)N(C)[C@@H](CC(C)C)C(=O)N[C@@H](C)C(=O)N[C@H](C)C(=O)N(C)[C@@H](CC(C)C)C(=O)N(C)[C@@H](CC(C)C)C(=O)N(C)[C@@H](C(C)C)C(=O)N1C [PSC833]
GFP MDCK-II cells; Example 7, P-gp study, endogenous P-gp
  mitoxantrone accumulation in GFP MDCK-II cells (in words): reversed
GFP MDCK-II cells; initial time course
  initial accumulation of mitoxantrone in GFP MDCK-II cells: slightly increased
P-gp; 1 hr (printed 'I hr')
  mitoxantrone accumulation in P-gp MDCK-II: markedly increased
P-gp; Example 7
  mitoxantrone accumulation in P-gp MDCK-II cells (in words): markedly reversed
P-gp; initial 5 min
  initial accumulation of mitoxantrone in P-gp MDCK-II cells: significantly increased

## CCCCCCCCCCCCOCCOCCOCCOCCO [Polyoxyl 4 lauryl ether, Lauryl polyethylene glycol ether]
ABCG2 [5]
  IC50: 77.5 ± 4.1 µM

## CC[C@@]1(O)C(=O)OCc2c1cc1n(c2=O)Cc2cc3c(CN(C)C)c(O)ccc3nc2-1 [topotecan]
[6]
  Eh of topotecan: 0.22
  F of topotecan: 0.27
  Fa × Fg of topotecan: 0.35
  Fh of topotecan: 0.78
  Fold Change of Fa × Fg relative to wild type control: 1.8
[6]; po, 1000 ug/kg
  CLtot,plasma of topotecan: 5.2 L/h/kg
[7]
  Eh of topotecan: 0.37
  F of topotecan: 0.12
  Fa × Fg of topotecan: 0.19
  Fh of topotecan: 0.63
[7]; po, 1000 ug/kg
  CLtot,plasma of topotecan: 20.0 L/h/kg
[8]
  blood plasma ratio: 1.2

## Polyoxyethyleneglyceroltrihydroxystearate [Polyoxyl 40 hydrogenated castor oil]
P-gp
  mitoxantrone accumulation in P-gp MDCK-II cells (in words): increased

## Polyoxyethyleneglyceroltriricinoleate 35 [Polyoxyl 35 castor oil]
P-gp
  mitoxantrone accumulation in P-gp MDCK-II cells (in words): increased

## Polyoxyethylenesorbitan monolaurate
P-gp
  mitoxantrone accumulation in P-gp MDCK-II cells (in words): increased

## Polyoxyethylenesorbitan monooleate
ABCG2 [1]
  inhibition of ABCG2 in the intact cell assay: did not inhibit ABCG2
P-gp
  mitoxantrone accumulation in P-gp MDCK-II cells (in words): increased

## Sorbitan monolaurate
GFP/MDCK II cells
  intracellular ATP, GFP/MDCK II: 132.8 ± 3.6 nmol/mg protein
[2]
  Reference cmc: 100 µM
ABCG2 [1]; Example 7, excipients below their cmc, in the presence of PSC833
  mitoxantrone accumulation in BCRP MDCK-II cells (in words): significantly increased
P-gp; Example 7
  mitoxantrone accumulation in P-gp MDCK-II cells (in words): increased

## Sorbitan monooleate
[2]
  Reference cmc: 100 µM

## Sorbitan monopalmitate
[2]
  Reference cmc: 200 µM
